Source: US8747830B2, “Wound repair composition and method” (Queensland University of Technology, priority 2007, dated 2014)

Tested on: MMP's (particularly MMP-9) in chronic wound fluid
Conditions: inhibitor 2 mM, 37° C., 24 hours; % of untreated control remaining
Experimental: Collagenase sensitivity was identified as clear bands against a dark background in zymograms and could be quantitated by densitometric analysis. […] Lanes 1-6 are chronic wound fluid samples from six different patients with 500 ng of total protein loaded per sample. […] Electrophoresis was performed at 4° C. under Laemmli conditions. […] After incubation the gels were stained appropriately and protease activity was visualised as clear (unstained) bands.

C=C(C)C(=O)NCCCC(O)(P(=O)(O)O)P(=O)(O)O [alendronate-methacrylate conjugate]
type I collagen degradation relative to that seen in the untreated control (densitometry, FIG. 4): 30%-40%
